# Laboratory results: patent publication US20070043034A1, “Chlorine Ion Uptake Modulators and Uses Thereof” (priority 2005, published 2007)
# How the values were obtained:
# KA-induced rat seizures = experiment: Kainic acid (KA) induced seizures in rat pups, EEG recording in vivo; details: KA 2 mg/kg s.c.
# Source text: Kainic Acid (KA) is a commonly used agent for creating an in vivo neonatal-like seizure model in rats for study. It is believed that this seizure model closely parallels human neonatal seizure disorders. KA, a glutamate receptor agonist, was used to induce neonatal-like seizures in postnatal (P) 7-12 day male Wistar rats. The rats were equipped with electrodes including recording and reference electrodes by standard means. There are many known methods for measuring parameters of seizures, in this example electrical signals were digitized using an analogue-to-digital converter for example a DigiData 1322A (Axon Instuments USA). The sampling interval can vary depending on the desired target interval. In this example, the sampling interval per signal was 200 […]s (5 kHz). For data analysis, several computer programs exist for capturing and analyzing these seizure parameters such as Clamp 9.2 (Axon Instruments, USA) and Origon 5.0 (Microcal Software, USA) used here. Interictal spikes were determined by typical means utilizing band-pass filtered raw data.
# Many known methods exist for analyzing the power levels of different frequency components in a signal such as a signal recorded from a seizure episode. For example, power spectrum analysis can be performed after applying a Hamming window function. Unless otherwise indicated, power was calculated in 1-2 min time windows by integrating the root mean square value of the signal in frequency bands from 1 to 100 Hz (EEC band) and from 200 to 500 Hz (fast ripple band).
# Pharmaceutical compositions of the present invention can be administered to seizure-induced rats to test the seizure modulatory properties of the pharmaceutical composition. In one exemplary method, the inhibition of NKCCl and its affect on seizures in rat pups was studied. Two days after implantation of recording electrodes, six P9-P10 rats received subcutaneous injection of KA (2 mg/kg) and six P9-10 control rats received subcutaneous 0.9% sodium chloride saline injections. 10-20 minutes after KA injection regular pattern of behavioral signs started, involving scratching-like movements of the hindpaws, loss of balance and turning on the side. Recurrent interictal and ictal electroencephalographic patterns occurred 20-80 minutes (61.2±10.4 min; mean±se) after KA injection in all rats from this experimental group (FIG. 4B). […] Interictal spikes usually occurred synchronously in the left and right hemispheres. Frequency of the interictal spikes was 1.43±0.06 Hz (n=23 seizures in 6 rats). Before transition to ictal patterns, interictal spikes were usually followed by fast ripple (100-500 Hz) and gamma-frequency oscillations (20-50 Hz). Tonic-clonic seizures were the most common type of seizures induced by KA in P9-10 rats. Ictal-tonic phase lasted 12.6±1.4 s (16 seizures in 5 rats). Population spikes of 18.7±1.2 Hz were characteristic of the tonic phase of KA-induced seizures (FIG. 4C). Tonic discharges were followed by clonic bursts (FIG. 4C). Large amplitude population spikes followed by 100-200 Hz ripples and 200-1200 ms gamma frequency after discharges characterized the clonic bursts. The mean duration of the clonic phase was 36.4±5 s (25 seizures in 6 rats). The ictal patterns were followed by postictal depression (FIG. 4 B-4C). During ictal EEG activity, motor activity consisted of scratching, jerky movements, turning on the side or on the back and frequent tail shaking. Five to ten recurrent seizures with an average interval 379±24.5 s were followed by periodic epileptiform discharges (PLEDs) (FIG. 4D).
# In one exemplary experiment, a pharmaceutical composition of the present invention comprising bumetanide was compared to phenobarbital for effects on KA-induced rat seizures. Two days after implantation of recording electrodes, twenty-two P9-12 age-matched rats received subcutaneous injection with KA (2 mg/kg). […]
# hypoxia-induced seizures = experiment: Hypoxia-induced seizures in P10 rats; assay type: in vivo, rat; details: hypoxia 15 min, i.p., Bumetanide 0.15 mg/kg 10 min prior, Phenobarbital 15 mg/kg 30 min prior, versus vehicle
# Source text: Litters of male Long-Evans hooded rats from Charles River Laboratories (Wilmington, Mass., USA) were used in this study. Each litter was divided into five treatment groups: no hypoxia control, hypoxia/DMSO in PBS, hypoxia/Bumetanide only, hypoxia/Phenobarbital only, and hypoxia/combination of Bumetanide and Phenobarbital. One to two litters were used for each run of the experiment, and each litter was housed together until the weaning age of P21.
# Rats at P10 (˜18 to 22 grams) were exposed to global hypoxia for 15 minutes in an airtight chamber into which N2 gas was rapidly infused. The oxygen concentration was maintained at 7% for 8 minutes, 5% for 6 minutes, and 4% for 1 minute before termination of hypoxia, during which the animals were immediately removed from the chamber and exposed to room air. For each animal during hypoxia, a record of the total number of myoclonic seizures and the total number and length of time in seconds of tonic clonic seizures were kept. For analysis purposes, time lengths of each tonic clonic seizure for each animal were pooled to obtain total seizure time. […] The body temperature of all animals was maintained at 34-40° C. on a warming blanket; the temperatures of each animal were also recorded before and after submission to hypoxia. […]
# [1] = P9-12 rats, phenobarbital 25 mg/kg or bumetanide 0.1-0.2 mg/kg i.p.
smiles,measurement,setting,value
"CCCCNc1cc(C(=O)O)cc(S(N)(=O)=O)c1Oc1ccccc1 [bumetanide, 3-(aminosulfonyl)-5-(butylamino)-4-phenoxybenzoic acid]",periodic epileptiform discharges,KA-induced rat seizures; bumetanide 0.1-0.2 mg/kg i.p.,occurred in all six rats
same,animals with recurrent ictal-clonic activity / EEG clonic seizures,"KA-induced rat seizures; P9-12 rats, drug i.p. 10 min after KA (phenobarbital 25 mg/kg; bumetanide 0.1-0.2 mg/kg), 6 rats per group",50%
same,duration of ictal-clonic phase,KA-induced rat seizures; [1],12.5 ± 1.1 s
same,duration of ictal-tonic phase,KA-induced rat seizures; [1],9 ± 1.9 s
same,frequency of interictal spikes,KA-induced rat seizures; [1],1.42 ± 0.07 Hz
same,mean duration of single ictal episode (seizure including interictal and ictal phases),KA-induced rat seizures; [1],32 ± 3.9 s
same,mean interval between seizures,KA-induced rat seizures; [1],360.1 ± 68.6 s
same,rats with ictal-tonic pattern / tonic-clonic seizures,KA-induced rat seizures; [1],16.7%
same,increase of power of EEG activity in the 20 minute window following seizure onset,"KA-induced rat seizures; compared to pre-ictal baseline, phenobarbital 25 mg/kg or bumetanide 0.1-0.2 mg/kg i.p., saline control 444.7±136.3%",88.7±24.5%
same,average seizing time,hypoxia-induced seizures,did not significantly reduce
